Reference: ChEMBL document CHEMBL1140819, “Protected aminooxyprolines for expedited library synthesis: application to Tsg101-directed proline-oxime containing peptides” (Bioorg Med Chem Lett, 2008)
*1 amine or outer side, *2 acyl side, *3 side chain or, on linkers, in order; H or OH if unused. Where a SMILES comes first, the peptide text is derived from it. [ ]: non-standard residue; d: D form. The star is where a group is joined. ξ: configuration not given here. Fluorescein(5-NHCS) = O=C1OC2(c3ccc(O)cc3Oc3cc(O)ccc32)c2cc(NC(=S)*)ccc21; X18 = O=C([C@@H]1C[C@@H](O/N=C\c2ccc3c(c2)Cc2ccccc2-3)CN1[*:1])[*:2]; X19 = O=C([C@@H]1C[C@@H](O/N=C\c2ccc([N+](=O)[O-])cc2)CN1[*:1])[*:2]; X47 = O=C([C@@H]1C[C@@H](O/N=C\c2ccc([N+](=O)[O-])o2)CN1[*:1])[*:2]; X48 = O=C([C@@H]1C[C@@H](O/N=C\c2c(F)c(F)c(F)c(F)c2F)CN1[*:1])[*:2]; X5 = CC(/C=N\O[C@@H]1C[C@@H](C(=O)[*:2])N([*:1])C1)=C\c1ccccc1; X21 = O=C([C@@H]1[C@@H](O/N=C\c2cnc3ccccc3c2)CCN1[*:1])[*:2]; X36 = CC(/C=N\O[C@H]1CCN([*:1])[C@@H]1C(=O)[*:2])=C\c1ccccc1; X46 = O=C([C@@H]1C[C@H](O/N=C\CCc2ccccc2)CN1[*:1])[*:2]; X24 = O=C([C@@H]1[C@@H](O/N=C\c2ccccc2)CCN1[*:1])[*:2]; X41 = CCCCC/C=N\O[C@@H]1C[C@@H](C(=O)[*:2])N([*:1])C1; X3 = CCCCC/C=N\O[C@H]1CCN([*:1])[C@@H]1C(=O)[*:2]; ξPip = O=C(O)C1CCCCN1; Ava = NCCCCC(=O)O

Biological target: T1, Tumor susceptibility gene 101 protein (Homo sapiens, UniProt Q99816)
T1 sequence (Q99816 whole entry): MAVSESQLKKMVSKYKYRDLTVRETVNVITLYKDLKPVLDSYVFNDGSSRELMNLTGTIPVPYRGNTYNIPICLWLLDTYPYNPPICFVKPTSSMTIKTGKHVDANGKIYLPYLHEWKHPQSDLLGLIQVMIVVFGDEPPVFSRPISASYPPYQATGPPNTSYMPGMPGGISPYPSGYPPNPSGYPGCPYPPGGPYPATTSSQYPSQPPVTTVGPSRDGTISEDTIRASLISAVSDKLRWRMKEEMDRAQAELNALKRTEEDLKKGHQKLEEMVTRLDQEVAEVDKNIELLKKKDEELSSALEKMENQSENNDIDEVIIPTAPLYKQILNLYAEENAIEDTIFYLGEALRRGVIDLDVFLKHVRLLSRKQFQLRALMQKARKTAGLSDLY
Assay: Binding affinity to Tsg101

SMILES	IC50
CCCCC/C=N\O[C@@H]1C[C@@H](C(=O)N[C@@H](CCC(=O)O)C(=O)N[C@@H](CCC(=O)O)C(N)=O)N(C(=O)C2CCCCN2C(=O)[C@H](C)NC(=O)[C@@H](NC(=O)[C@@H]2CCCN2C(=O)[C@H](CCC(=O)O)NC(=O)[C@@H]2CCCN2C(=O)CCCCNC(=S)Nc2ccc3c(c2)C2(OC3=O)c3ccc(O)cc3Oc3cc(O)ccc32)[C@@H](C)O)C1 (stereo partly specified) ({Fluorescein(5-NHCS)-Ava}-PEPTA[ξPip][X41]EE-NH2)	41 µM
CCCCC/C=N\O[C@H]1CCN(C(=O)C2CCCCN2C(=O)[C@H](C)NC(=O)[C@@H](NC(=O)[C@@H]2CCCN2C(=O)[C@H](CCC(=O)O)NC(=O)[C@@H]2CCCN2C(=O)CCCCNC(=S)Nc2ccc3c(c2)C2(OC3=O)c3ccc(O)cc3Oc3cc(O)ccc32)[C@@H](C)O)[C@@H]1C(=O)N[C@@H](CCC(=O)O)C(=O)N[C@@H](CCC(=O)O)C(N)=O (stereo partly specified) ({Fluorescein(5-NHCS)-Ava}-PEPTA[ξPip][X3]EE-NH2)	23 µM
C[C@H](NC(=O)[C@@H](NC(=O)[C@@H]1CCCN1C(=O)[C@H](CCC(=O)O)NC(=O)[C@@H]1CCCN1C(=O)CCCCNC(=S)Nc1ccc2c(c1)C1(OC2=O)c2ccc(O)cc2Oc2cc(O)ccc21)[C@@H](C)O)C(=O)N1CCCCC1C(=O)N1C[C@H](O/N=C\c2c(F)c(F)c(F)c(F)c2F)C[C@H]1C(=O)N[C@@H](CCC(=O)O)C(=O)N[C@@H](CCC(=O)O)C(N)=O (stereo partly specified) ({Fluorescein(5-NHCS)-Ava}-PEPTA[ξPip][X48]EE-NH2)	32 µM
C[C@H](NC(=O)[C@@H](NC(=O)[C@@H]1CCCN1C(=O)[C@H](CCC(=O)O)NC(=O)[C@@H]1CCCN1C(=O)CCCCNC(=S)Nc1ccc2c(c1)C1(OC2=O)c2ccc(O)cc2Oc2cc(O)ccc21)[C@@H](C)O)C(=O)N1CCCCC1C(=O)N1C[C@@H](O/N=C\CCc2ccccc2)C[C@H]1C(=O)N[C@@H](CCC(=O)O)C(=O)N[C@@H](CCC(=O)O)C(N)=O (stereo partly specified) ({Fluorescein(5-NHCS)-Ava}-PEPTA[ξPip][X46]EE-NH2)	83 µM
C[C@H](NC(=O)[C@@H](NC(=O)[C@@H]1CCCN1C(=O)[C@H](CCC(=O)O)NC(=O)[C@@H]1CCCN1C(=O)CCCCNC(=S)Nc1ccc2c(c1)C1(OC2=O)c2ccc(O)cc2Oc2cc(O)ccc21)[C@@H](C)O)C(=O)N1CCCCC1C(=O)N1C[C@H](O/N=C\c2ccc3c(c2)Cc2ccccc2-3)C[C@H]1C(=O)N[C@@H](CCC(=O)O)C(=O)N[C@@H](CCC(=O)O)C(N)=O (stereo partly specified) ({Fluorescein(5-NHCS)-Ava}-PEPTA[ξPip][X18]EE-NH2)	27 µM

Compounds with a lower IC50, results first:

IC50	SMILES
15 µM	C[C@H](NC(=O)[C@@H](NC(=O)[C@@H]1CCCN1C(=O)[C@H](CCC(=O)O)NC(=O)[C@@H]1CCCN1C(=O)CCCCNC(=S)Nc1ccc2c(c1)C1(OC2=O)c2ccc(O)cc2Oc2cc(O)ccc21)[C@@H](C)O)C(=O)N1CCCCC1C(=O)N1CC[C@H](O/N=C\c2ccccc2)[C@H]1C(=O)N[C@@H](CCC(=O)O)C(=O)N[C@@H](CCC(=O)O)C(N)=O (stereo partly specified) ({Fluorescein(5-NHCS)-Ava}-PEPTA[ξPip][X24]EE-NH2)
12 µM	CC(/C=N\O[C@H]1CCN(C(=O)C2CCCCN2C(=O)[C@H](C)NC(=O)[C@@H](NC(=O)[C@@H]2CCCN2C(=O)[C@H](CCC(=O)O)NC(=O)[C@@H]2CCCN2C(=O)CCCCNC(=S)Nc2ccc3c(c2)C2(OC3=O)c3ccc(O)cc3Oc3cc(O)ccc32)[C@@H](C)O)[C@@H]1C(=O)N[C@@H](CCC(=O)O)C(=O)N[C@@H](CCC(=O)O)C(N)=O)=C\c1ccccc1 (stereo partly specified) ({Fluorescein(5-NHCS)-Ava}-PEPTA[ξPip][X36]EE-NH2)
21 µM	C[C@H](NC(=O)[C@@H](NC(=O)[C@@H]1CCCN1C(=O)[C@H](CCC(=O)O)NC(=O)[C@@H]1CCCN1C(=O)CCCCNC(=S)Nc1ccc2c(c1)C1(OC2=O)c2ccc(O)cc2Oc2cc(O)ccc21)[C@@H](C)O)C(=O)N1CCCCC1C(=O)N1C[C@H](O/N=C\c2ccc([N+](=O)[O-])cc2)C[C@H]1C(=O)N[C@@H](CCC(=O)O)C(=O)N[C@@H](CCC(=O)O)C(N)=O (stereo partly specified) ({Fluorescein(5-NHCS)-Ava}-PEPTA[ξPip][X19]EE-NH2)
19 µM	C[C@H](NC(=O)[C@@H](NC(=O)[C@@H]1CCCN1C(=O)[C@H](CCC(=O)O)NC(=O)[C@@H]1CCCN1C(=O)CCCCNC(=S)Nc1ccc2c(c1)C1(OC2=O)c2ccc(O)cc2Oc2cc(O)ccc21)[C@@H](C)O)C(=O)N1CCCCC1C(=O)N1CC[C@H](O/N=C\c2cnc3ccccc3c2)[C@H]1C(=O)N[C@@H](CCC(=O)O)C(=O)N[C@@H](CCC(=O)O)C(N)=O (stereo partly specified) ({Fluorescein(5-NHCS)-Ava}-PEPTA[ξPip][X21]EE-NH2)
12 µM	C[C@H](NC(=O)[C@@H](NC(=O)[C@@H]1CCCN1C(=O)[C@H](CCC(=O)O)NC(=O)[C@@H]1CCCN1C(=O)CCCCNC(=S)Nc1ccc2c(c1)C1(OC2=O)c2ccc(O)cc2Oc2cc(O)ccc21)[C@@H](C)O)C(=O)N1CCCCC1C(=O)N1C[C@H](O/N=C\c2ccc([N+](=O)[O-])o2)C[C@H]1C(=O)N[C@@H](CCC(=O)O)C(=O)N[C@@H](CCC(=O)O)C(N)=O (stereo partly specified) ({Fluorescein(5-NHCS)-Ava}-PEPTA[ξPip][X47]EE-NH2)
13 µM	CC(/C=N\O[C@@H]1C[C@@H](C(=O)N[C@@H](CCC(=O)O)C(=O)N[C@@H](CCC(=O)O)C(N)=O)N(C(=O)C2CCCCN2C(=O)[C@H](C)NC(=O)[C@@H](NC(=O)[C@@H]2CCCN2C(=O)[C@H](CCC(=O)O)NC(=O)[C@@H]2CCCN2C(=O)CCCCNC(=S)Nc2ccc3c(c2)C2(OC3=O)c3ccc(O)cc3Oc3cc(O)ccc32)[C@@H](C)O)C1)=C\c1ccccc1 (stereo partly specified) ({Fluorescein(5-NHCS)-Ava}-PEPTA[ξPip][X5]EE-NH2)
